Measured values reported in patent US12516041B2, “Crystal forms of GLP-1R agonists and uses thereof” (QILU REGOR THERAPEUTICS INC., priority 2020, dated 2026).
≈ marks a conversion by molar mass, not a printed value. Where two headings read alike, the source gives them in different places.

Experiments:
Type in all cases: physicochemical
[1] = Solid-state stability study (HPLC purity, XRPD)
Procedure: XRPD patterns were identified with an X-ray diffractometer (PANalytical Empyrean). The system was equipped with PIXcel^1D detector. Samples were scanned from 3 to 40° 2θ, at a step size of 0.013° 2θ. The tube voltage and current were 45 KV and 40 mA, respectively.
(§1) HPLC analysis was performed with an Agilent HPLC 1260 series instrument.
(§2) HPLC Method for Stability and Solubility Testing
About 25 mg of free acid Form I was placed at 60° C./capped and 40° C./75% RH (open) conditions for up to 12 days. At day 0 and 7, the sample was dissolved in diluent to prepare 0.5 mg/mL solution for HPLC purity analysis. Solid samples were analyzed by XRPD to check the crystal form at day 12.

[2] = Dynamic Vapor Sorption (DVS)
Description: Moisture sorption/desorption data was collected on a Vsorp Dynamic Moisture Sorption Analyzer (ProUmid GmbH & Co. KG, Germany). The sample was placed into a tared sample chamber and automatically weighed.
The product obtained from preparation method 1 was characterized by XRPD (FIG. 1), TGA, DSC (FIG. 2), DVS (FIG. 3), and ^1H-NMR.

[3] = Solubility test in bio-relevant media (SGF, FeSSIF, FaSSIF), HPLC of filtrate, XRPD of filter cake; conditions: for solubility at 24 h / solubility at 0.5 h / solubility at 2 h: 37 °C, thermodynamic from solid; for solubility at 24 h: read-out: Solubility (μg/mL) 24 h; for solubility at 0.5 h: read-out: Solubility (μg/mL) 0.5 h; for solubility at 2 h: read-out: Solubility (μg/mL) 2 h
Procedure: as §1, §2
The solubility of free acid Form I was tested in bio-relevant media (Simulated Gastric Fluid (SGF), Fasted-State Simulated Intestinal Fluid (FaSSIF) and Fed-State Simulated Intestinal Fluid (FeSSIF)) at 37° C. for up to 24 hours. About 15 mg of the sample was weighed into sample vial, and then 5.0 mL of bio-relevant media was added to make suspension. All suspensions prepared were shaken @ 600 rpm with a QQMSC-100 shaker at 37° C. At 0.5, 2 and 24 hours, about 1000 μL of each suspension was filtered and diluted, and then the filtrate was analyzed by HPLC to test the solubility. The pH of the filtrate was measured, and the filter cake was analyzed by XRPD.

- Purity-1 week (Area %) 40° C./75% RH, 1 week ([1]; 40° C./75% RH (open), 1 week, HPLC): 99.56 Area %
- XRPD-12 days 40° C./75% RH ([1]; 40° C./75% RH (open), 12 days): Unchanged
- Physical and chemical stability (in words) ([1]; 60° C./capped and 40° C./75% RH (open), 12 days): physically and chemically stable
- Purity-1 week (Area %) 60° C./Capped, 1 week ([1]; 60° C./capped, 1 week, HPLC): 99.54 Area %
- XRPD-12 days 60° C./Capped ([1]; 60° C./capped, 12 days): Unchanged
- Initial Purity (Area %) ([1]; day 0, HPLC): 99.58 Area %
- Hygroscopicity (DVS) [2]: Slightly
- DVS weight change to 90% RH ([2]; 0 to 90% RH): 0.6%
- Crystal form after DVS test ([2]; after DVS test): remained unchanged
- DVS weight change 0-80% RH ([2]; from 0 to 80% RH): ~0.3%
- Hygroscopicity (DVS) ([2]; listed as crystalline Form I of Compound A free acid): slightly hygroscopic
- Hygroscopicity (DVS) ([2]; listed as free acid Form I): slightly hygroscopic
- solubility at 24 h ([3]; FaSSIF, pH 6.45, fassif, FaSSIF, pH 6.45 (24 h)): 15 µg/mL (≈ 26 µM)
- solubility at 0.5 h ([3]; FaSSIF, pH 6.5, fassif, FaSSIF, pH 6.50 (0 h)): ~5 µg/mL (≈ 8.68 µM)
- solubility at 2 h ([3]; FaSSIF, pH 6.5, fassif, FaSSIF): 6 µg/mL (≈ 10.4 µM)
- solubility at 24 h ([3]; FeSSIF, pH 4.95, fessif, FeSSIF, pH 4.95 (24 h)): 11 µg/mL (≈ 19.1 µM)
- solubility at 0.5 h ([3]; FeSSIF, pH 4.99, fessif, FeSSIF, pH 4.99 (0 h)): ~10 µg/mL (≈ 17.4 µM)
- solubility at 2 h ([3]; FeSSIF, pH 4.99, fessif, FeSSIF): 17 µg/mL (≈ 29.5 µM)
- Solubility in SGF (in words) ([3]; SGF, 37° C.): insoluble
- XRPD pattern after solubility study ([3]; bio-relevant media, 37° C., up to 24 hours): not changed
- XRPD (24 h) ([3]; filter cake after 24 h in FaSSIF, 37° C.): Unchanged
- XRPD (24 h) ([3]; filter cake after 24 h in FeSSIF, 37° C.): Unchanged
- XRPD (24 h) ([3]; filter cake after 24 h in SGF, 37° C.): Unchanged
SMILES: O=C(O)c1ccc2nc(Cc3ccc(-c4cccc(OCc5ccc(Cl)cc5F)n4)cc3F)n(C[C@@H]3CCO3)c2c1 [Free Acid Form I, (S)-2-(4-(6-((4-chloro-2-fluorobenzyl)oxy)pyridin-2-yl)-2-fluorobenzyl)-1-(oxetan-2-ylmethyl)-1H-benzo[d]imidazole-6-carboxylic acid]
